Laboratory results taken from patent US20080312227A1, “Substituted Pyrido(2,3-D) Pyrimidine Derivatives Useful as Medicines for the Treatment of Autoimmune Disorders” (4 AZA BIOSCIENCE NV, priority 2005, published 2008).
Counter-ions that a name gives are not always drawn. Like-named read-outs stand apart in the source and are kept apart here.

Tests used:
[1] = system: human TNF-α production by PBMC; experiment: TNF-α assay (LPS-stimulated PBMC, sandwich ELISA); type: cell-based; conditions: PBMC stimulated with LPS 1 μg/ml, 72 hours, read-out: TNF α (IC50 in the TNFα assay)
Procedure: (§1) Peripheral blood mononuclear cells (herein referred as PBMC), in response to stimulation by lipopolysaccharide (hereinafter LPS), a gram-negative bacterial endotoxin, produce various […], in particular human TNF-α. Inhibition of the activation of PBMC can therefore be measured by the level of suppression of the production of TNF-α by PBMC in response to stimulation by LPS.
Such inhibition measurement was performed as follows: PBMC were isolated from heparinized peripheral blood by density gradient centrifugation over Lymphoprep (commercially available from Nycomed, Norway). LPS was then added to the PMBC suspension in complete medium (10^6 cells/ml) at a final concentration of 1 μg/ml. The pyrido[3,2-d]pyrimidine derivative to be tested was added at different concentrations (0.1 μM, 1 μM and 10 μM) and the cells were incubated at 37° C. for 72 hours in 5% CO2. The supernatants were collected, then TNF-α concentrations were measured with respectively an anti-TNF-α antibody in a sandwich ELISA (Duo Set ELISA human TNFα, commercially available from R&D Systems, United Kingdom). The colorimetric reading of the ELISA was measured by a Multiskan RC plate reader (commercially available from ThermoLabsystems, Finland) at 450 nm (reference wavelength: 690 nm). Data analysis was performed with Ascent software 2.6. (also from ThermoLabsystems, Finland): a standard curve (recombinant human TNFα) was drawn and the amount (pg/ml) of each sample on the standard curve was determined.
The % suppression of human TNFα production by the pyrido[2,3-d]pyrimidine derivatives of the invention was calculated using the formula: […]

[2] = system: mixed lymphocyte reaction (PBMC with irradiated allogeneic PBMC or RPMI1788 stimulator cells); experiment: Mixed lymphocyte reaction (MLR) assay; type: cell-based, human; conditions: read-out: MLR (IC50, lowest concentration giving 50% suppression of the MLR)
Procedure: Pyrido[2,3-d]pyrimidine derivatives were first dissolved (10 mM) in dimethyl-sulfoxide (hereinafter referred as DMSO) and further diluted in culture medium before use for the following in vitro experiments. The commercially available culture medium consisted of RPMI-1640+10% foetal calf serum (FCS). Some pyrido[2,3-d]pyrimidine derivatives described herein were tested in the following mixed lymphocyte reaction (MLR) assay.
Peripheral blood mononuclear cells (hereinafter referred as PBMC) were isolated from heparinized peripheral blood by density gradient centrifugation over Lymphoprep (Nycomed, Maorstua, Norway). Allogeneic PBMC or Eppstein-Barr Virus-transformed human B cells [commercially available under the trade name RPMI1788 (ATCC name CCL156)] which strongly express B7-1 and B7-2 antigens were used as stimulator cells after irradiation with 30 Gy. MLR was performed in triplicate wells. After 5 days incubation at 37° C., 1 μCi [^3H]-thymidine was added to each cup. After a further 16 hours incubation, cells were harvested and counted in a β-counter. Inhibition of proliferation by a compound described in some of the present examples was counted while using the formula: […]
wherein cpm is the thymidine count per minute. The MLR assay is regarded by those skilled in the art as an in vitro analogue of the transplant rejection since it is based on the recognition of allogeneic major histocompatibility antigens on the stimulator leukocytes, by responding lymphocytes.

[3] = system: human IL-1 β production by PBMC; experiment: IL-1 β assay (LPS-stimulated PBMC, sandwich ELISA); type: cell-based; conditions: PBMC stimulated with LPS 1 μg/ml, 72 hours, read-out: IC50 in the IL-1 β test (50% suppression of human IL-1 β)
Procedure: as §1, with “(LPS),” for “(hereinafter LPS),”, “IL-1 β.” for “TNF-α.”, “IL-1 β” for “TNF-α”
Such inhibition measurement was performed as follows: PBMC were isolated from heparinized peripheral blood by density gradient centrifugation over Lymphoprep (commercially available from Nycomed, Norway). LPS was then added to the PMBC suspension in complete medium (10^6 cells/ml) at a final concentration of 1 μg/ml. […] The supernatants were collected, then IL-1 β concentrations were measured with an anti-IL-1 β antibody in a sandwich ELISA. The calorimetric reading of the ELISA was measured by a Multiskan RC plate reader (commercially available from ThermoLabsystems, Finland) at 450 nm (reference wavelength: 690 nm). […] (also from ThermoLabsystems, Finland): a standard curve (recombinant human IL-1 β) was drawn and the amount (pg/ml) of each sample on the standard curve was determined.
The % suppression of human IL-1 β by the pyrido[2,3-d]pyrimidine derivatives of this invention was calculated using the formula: […]

[4] = Homo sapiens, RPMI-1788, 5 days incubation then 16 h [3H]-thymidine
[5] = 5 days incubation then 16 h [3H]-thymidine

Row | Compound | IC50 [1] | IC50 [2, 4] | IC50 ([1]; Homo sapiens) | IC50 [2, 5] | further results
1 | 2-amino-6-(3,4-dimethoxyphenyl)-4-(4-N-methyl piperidinoxy)pyrido[2,3-d]pyrimidine [Example 34] | 6.7 µM |  |  |  | 
2 | COc1ccc(-c2cnc3nc(N)nc(OC(C)C)c3c2)cc1OC [Example 2, 2-amino-4-isopropoxy-6-(3,4-dimethoxyphenyl)-pyrido[2,3-d]pyrimidine] |  | 0.9 µM | 0.09 µM |  | 
3 | COc1ccc(-c2cnc3nc(N)nc(N4CCOCC4)c3c2)cc1OC [Example 4, 2-amino-4-morpholino-6-(3,4-dimethoxyphenyl)-pyrido[2,3-d]pyrimidine] |  | 4.8 µM | 3.2 µM |  | 
4 | Cc1ccc(NC(=O)N2CCN(c3nc(N)nc4ncc(Br)cc34)CC2)cc1 [Example 7, 2-amino-4-[N-4-methylphenylcarbamoyl-piperazin-1-yl]-6-bromo-pyrido[2,3-d]pyrimidine] |  |  |  | 0.7 µM | 
5 | COc1ccc(-c2cnc3nc(N)nc(N4CCN(C(=O)COc5ccccc5)CC4)c3c2)cc1OC [Example 10, 2-amino-4-(N-phenoxyacetyl-N-piperazin-1-yl)-6-(3,4-dimethoxyphenyl)pyrido[2,3d]pyrimidine] | 1.7 µM |  |  | 0.3 µM | 
6 | COc1ccc(-c2cnc3nc(N)nc(N4CCN(C(=O)Nc5ccc(C)cc5)CC4)c3c2)cc1OC [Example 12, 2-amino-4-(N-4-methylphenylcarbamoyl-piperazin-1-yl]-6-(3,4-dimethoxyphenyl)pyrido[2,3-d]pyrimidine] | 4.9 µM |  |  | 0.4 µM | 
7 | COc1ccc(-c2cnc3nc(N)nc(N4CCN(C(=O)OCc5ccccc5)CC4)c3c2)cc1OC [Example 15, 2-amino-6-(3,4-dimethoxyphenyl)-4-[(N-benzyloxycarbonyl)-piperazin-1-yl]-pyrido[2,3-d]pyrimidine] | 0.9 µM |  |  | 0.8 µM | IC50 [3]: 7 µM
8 | CC(C)Oc1nc(N)nc2ncc(-c3cccs3)cc12 [Example 21, 2-amino-4-isopropoxy-6-(2-thienyl)pyrido[2,3-d]pyrimidine] |  |  | 0.8 µM |  | 
9 | COc1ccc(-c2cnc3nc(N)nc(N4CCNCC4)c3c2)cc1OC [Example 22, 2-amino-4-(piperazin-1-yl)-6-(3,4-dimethoxyphenyl)-pyrido[2,3-d]pyrimidine] |  |  | 8.1 µM |  | 
10 | COc1ccc(-c2cnc3nc(N)nc(N4CCN(Cc5ccccc5)CC4)c3c2)cc1OC [Example 23, 2-amino-4-(4-benzylpiperazin-1-yl)-6-(3,4-dimethoxyphenyl)-pyrido[2,3-d]pyrimidine] |  | 7.2 µM | 0.7 µM |  | 
11 | CCCNc1nc(N)nc2ncc(-c3ccc(OC)c(OC)c3)cc12 [Example 30, 2-amino-4-n-propylamino-6-(3,4-dimethoxyphenyl)pyrido[2,3-d]pyrimidine] |  | 5.2 µM | 4 µM |  | 
12 | COc1ccc(-c2cnc3nc(N)nc(NC(C)C)c3c2)cc1OC [Example 31, 2-amino-4-isopropylamino-6-(3,4-dimethoxyphenyl)pyrido[2,3-d]pyrimidine] |  | 5.7 µM | 0.7 µM |  | 
13 | COc1ccc(-c2cnc3nc(N)nc(N4CCCCC4)c3c2)cc1OC [Example 32, 2-amino-4-(1-piperidino)-6-(3,4-dimethoxyphenyl)pyrido[2,3-d]pyrimidine] | 0.9 µM |  |  | 1.9 µM | 
14 | COc1ccc(-c2cnc3nc(N)nc(OC4CCOCC4)c3c2)cc1OC [Example 33, 2-amino-4-(tetrahydro-2H-pyran-4-yloxy)-6-(3,4-dimethoxyphenyl)pyrido[2,3-d]pyrimidine] |  | 2.4 µM | 0.6 µM |  | 
15 | COc1ccc(-c2cnc3nc(N)nc(OC)c3c2)cc1OC [Example 35, 2-amino-4-methoxy-6-(3,4-dimethoxyphenyl)pyrido[2,3d]pyrimidine] | 0.9 µM |  |  | 6.2 µM | 
16 | CCC(C)Oc1nc(N)nc2ncc(-c3ccc(OC)c(OC)c3)cc12 (centres unmarked) [Example 36, 2-amino-4-(sec-butoxy)-6-(3,4-dimethoxyphenyl)-pyrido[2,3d]pyrimidine] | 0.6 µM |  |  | 2.6 µM | 
17 | CCC(C)Oc1nc(N)nc2ncc(-c3ccc(OC)c(OC)c3)cc12 (centres unmarked) [Example 37, hydrochloride salt of 2-amino-4-(sec-butoxy)-6-(3,4-dimethoxyphenyl)-pyrido[2,3-d]pyrimidine] | 0.5 µM |  |  | 3.2 µM | 
18 | Cc1ccc(-c2cnc3nc(N)nc(OC(C)C)c3c2)cc1C [Example 38, 2-amino-4-isopropoxy-6-(3,4-dimethylphenyl)-pyrido[2,3-d]pyrimidine] |  |  | 0.9 µM |  | 
19 | COc1ccc(-c2cnc3nc(N)nc(Nc4cccc(Br)c4)c3c2)cc1OC [Example 42, 2-amino-4-(3-bromo-anilino)-6-(3,4-dimethoxyphenyl)pyrido[2,3-d]pyrimidine] |  | 3.3 µM | 3.3 µM |  | IC50 ([3]; Homo sapiens): 7 µM
20 | COc1ccc(-c2cnc3nc(N)nc(NCc4ccccc4)c3c2)cc1OC [Example 43, 2-amino-4-(benzylamino)-6-(3,4-dimethoxyphenyl)pyrido[2,3-d]pyrimidine] |  | 5 µM |  |  | 
21 | COc1ccc(-c2cnc3nc(N)nc(NCCc4ccccc4)c3c2)cc1OC [Example 44, 2-amino-4-(phenylethylamino)-6-(3,4-dimethoxyphenyl)pyrido[2,3-d]pyrimidine] |  | 4.3 µM | 4.2 µM |  | 
